Converted amounts (≈) assume the structure as drawn.
Key:
[1] = system: rice plant (variety: Nihonbare); assay: Phytotoxicity on rice plant (Experimental Example 1); type: in vivo; settings: 0.25g/box a.i.
Method: Exterminating test on seedling blight of rice plant Nursery boxes (60 × 30 × 3 cm) were filled with soil which were contaminated with pathogen (Fusarium sp. and Rhizoctonia sp.) The dust in which the present compound was contained in a ratio of 5% by weight was added in the box in a ratio of 5 grams per box and mixed well with soil. Thereafter, seeds of rice plant (variety: Nihonbare) were sowed in drills at a rate of 0.3 liter per box and grown up in a lighting chamber at 17° C. After 7 days from the sowing, the boxes were carried out in the field. Furthermore, 10 days thereafter the observations were made. Four percent (4%) dust of 3-hydroxy-5-methyl isoxazol (hereinafter referred to as hydroxyisoxazol) on the market was used as a control and tested by the same method. The test results are shown in Table 2 with a "percentage of healthy seedlings". The percentage of healthy seedlings was calculated as follows: […]

[2] = system: Rhizoctonia solani (damping-off of cucumber); assay: Exterminating test on damping-off of cucumber (Experimental Example 3); type: in vivo; settings: Rhizoctonia solani, soil, 240 h, read-out: Percentage of healthy seedlings
Procedure, shortened: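 Pots of field soil infested with Rhizoctonia solani (5 g/pot), sown with 10 Azumamidori cucumber seeds, then drenched with 50 ml aqueous suspension of 80% wettable powder and kept in greenhouse. PCNB 50% wettable powder as control. Percentage of healthy seedlings scored 10 days after inoculation.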

[3] = system: cucumber (variety; Tokiwazibai); assay: Phytotoxicity on cucumber (Experimental Example 4); type: in vivo; settings: 500 ppm
Method: Exterminating test on Fusarium wilt of cucumber Twenty (20) grams of infected soil was added uniformly into each pot which was filled with steam sterilized field soil, then 18 seeds of cucumber (variety; Tokiwazibai) were sowed in each pot. Eighty percent (80%) wettable powder of the present invention was diluted with water to obtain a suspension, and each pot was drenched with the suspension in an amount of 100 ml. Fifty percent (50%) wettable powder of methyl-1-(butylcarbamoyl) 2-benzimidazol carbamate (hereinafter referred to as Benlate) on the market was used as a control and tested by the same method. After two weeks of planting, degrees attacked by the pathogen was observed and a "percentage of healthy seedlings" was calculated as follows: [formula]

[4] = system: Fusarium wilt of cucumber; assay: Exterminating test on Fusarium wilt of cucumber (Experimental Example 4); type: in vivo, Fusarium oxysporum f, cucumerinum; settings: Fusarium, soil, 336 h, read-out: Percentage of healthy seedlings
Procedure, shortened: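 Pots of steam-sterilized soil mixed with 20 g infested soil, sown with 18 cucumber seeds (Tokiwazibai), drenched with 100 ml aqueous suspension of 80% wettable powder. Benlate 50% wettable powder run as control. Disease scored two weeks after planting as percentage of healthy seedlings.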

Escherichia coli = assay: Minimum inhibitory amount, dilution methods (Example 24); type: cell-based; settings: Escherichia coli, read-out: Minimum inhibitory amount
Description: (§1) Bactericidal activity and fungicidal activity of the active compounds of the present invention were examined by potato-dextrose agar dilution method, or [2] glucose bouillon medium dilution method. The results are shown in Table 10 below as the minimum inhibitory concentration (the minimum concentration of active compound found to produce 100% control of the test bacteria and fungi).

Cladosporium harbarum = assay: as above; type: cell-based; settings: Cladosporium, read-out: Minimum inhibitory amount
Description: as §1

Bacillus subtilis = assay: as above; type: cell-based; settings: Bacillus subtilis, read-out: Minimum inhibitory amount
Description: as §1

Penicillium Citrinum = assay: as above; type: cell-based; settings: Penicillium citrinum, read-out: Minimum inhibitory amount
Description: as §1

Staphylococcus aureus = assay: as above; type: cell-based; settings: Staphylococcus aureus, read-out: Minimum inhibitory amount
Description: as §1

Aspergillus niger = assay: as above; type: cell-based; settings: Aspergillus niger, read-out: Minimum inhibitory amount
Description: as §1

[5] = system: cucumber (variety: Azumamidori); assay: Phytotoxicity on cucumber (Experimental Example 3); type: in vivo; settings: 1,000 ppm
[6] = system: seedling blight of rice plant (pathogen Fusarium sp. and Rhizoctonia sp.); assay: Exterminating test on seedling blight of rice plant (Experimental Example 1); type: in vivo; settings: soil, 408 h, read-out: Percentage of healthy seedlings
Procedure, shortened: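 Pathogen-contaminated nursery soil (Fusarium sp., Rhizoctonia sp.) mixed with 5% compound dust at 5 g per box; Nihonbare rice sown, grown 7 days at 17° C in lighting chamber, then moved to field. Assessed 10 days later as percentage of healthy seedlings; commercial 4% hydroxyisoxazol dust run as control.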

**Q.** How did the Phytotoxicity [1] turn out when `CNC(=O)Oc1ccccc1C(=O)NC=C(Cl)Cl` [Compound No. 19, O-(N'-methylcarbamoyl)-N-(2,2-dichlorovinyl) salicylamide] was run?
**A.** Nil

**Q.** And the pest or weed control at 1000 ppm [2]?
**A.** 65%

**Q.** What about the Phytotoxicity [3] of the same compound?
**A.** Nil

**Q.** What about the pest or weed control at 500 ppm [4] of the same compound?
**A.** 38%

**Q.** And the MIC (Escherichia coli)?
**A.** 60 µg/mL (≈ 208 µM)

**Q.** What about the MIC (Cladosporium harbarum) of the same compound?
**A.** 5 µg/mL (≈ 17.3 µM)

**Q.** What about the MIC (Bacillus subtilis) of the same compound?
**A.** 10 µg/mL (≈ 34.6 µM)

**Q.** What about the MIC (Penicillium Citrinum) of the same compound?
**A.** 10 µg/mL (≈ 34.6 µM)

**Q.** And the MIC (Staphylococcus aureus)?
**A.** 10 µg/mL (≈ 34.6 µM)

**Q.** And the MIC (Aspergillus niger)?
**A.** 20 µg/mL (≈ 69.2 µM)

**Q.** What about the Phytotoxicity [5] of the same compound?
**A.** Nil

**Q.** And the Percentage of healthy seedlings at 0.25 g/box [6]?
**A.** 64.7%
